In patent US11407748B2, “Substituted pyrido[1,2-a]pyrimidines and pyrazino[1,2-a]pyrimidines for enhancing AMPA receptor function” (Takeda Pharmaceutical Company Limited, priority 2017, dated 2022):

molecular target: T1, hGluR1 flip (Homo sapiens, UniProt P42261); assay: AMPA receptor function-enhancing activity using calcium influx as index; type: cell-based; details: test compound 30 μM with 3 mM glutamic acid; CHO-K1/GluR1 flip/stargazin-expressing cells; 100% = 3 mM glutamic acid + 300 μM cyclothiazide, 0% = 3 mM glutamic acid alone
T1 construct: expressed in transfected cells; host or cells: CHO-K1
T1 sequence (P42261 19-906 isoform P42261-2 limits assumed): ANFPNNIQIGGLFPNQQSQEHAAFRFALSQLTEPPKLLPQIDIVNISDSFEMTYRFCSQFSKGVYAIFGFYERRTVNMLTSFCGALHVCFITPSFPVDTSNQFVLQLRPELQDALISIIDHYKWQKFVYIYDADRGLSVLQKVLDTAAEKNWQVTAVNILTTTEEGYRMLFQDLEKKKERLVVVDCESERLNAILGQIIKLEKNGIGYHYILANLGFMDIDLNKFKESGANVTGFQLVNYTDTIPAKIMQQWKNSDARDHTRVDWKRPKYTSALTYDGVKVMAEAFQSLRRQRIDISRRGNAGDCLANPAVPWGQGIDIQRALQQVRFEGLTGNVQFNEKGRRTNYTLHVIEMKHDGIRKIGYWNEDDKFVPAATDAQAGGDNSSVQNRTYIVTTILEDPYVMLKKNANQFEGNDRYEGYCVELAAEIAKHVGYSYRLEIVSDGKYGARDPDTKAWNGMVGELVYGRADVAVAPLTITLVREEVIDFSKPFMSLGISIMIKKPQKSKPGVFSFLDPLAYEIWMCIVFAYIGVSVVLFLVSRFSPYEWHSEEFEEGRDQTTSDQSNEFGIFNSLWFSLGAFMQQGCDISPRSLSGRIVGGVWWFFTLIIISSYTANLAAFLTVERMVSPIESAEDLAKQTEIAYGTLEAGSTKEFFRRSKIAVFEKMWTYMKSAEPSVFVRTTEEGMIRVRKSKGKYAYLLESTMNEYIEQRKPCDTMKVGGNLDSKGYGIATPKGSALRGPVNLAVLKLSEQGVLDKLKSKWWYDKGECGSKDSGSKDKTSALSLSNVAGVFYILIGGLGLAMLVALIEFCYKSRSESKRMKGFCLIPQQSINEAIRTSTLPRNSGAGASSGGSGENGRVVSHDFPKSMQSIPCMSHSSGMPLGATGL
T1 sequence (Q9Y698 whole entry partner): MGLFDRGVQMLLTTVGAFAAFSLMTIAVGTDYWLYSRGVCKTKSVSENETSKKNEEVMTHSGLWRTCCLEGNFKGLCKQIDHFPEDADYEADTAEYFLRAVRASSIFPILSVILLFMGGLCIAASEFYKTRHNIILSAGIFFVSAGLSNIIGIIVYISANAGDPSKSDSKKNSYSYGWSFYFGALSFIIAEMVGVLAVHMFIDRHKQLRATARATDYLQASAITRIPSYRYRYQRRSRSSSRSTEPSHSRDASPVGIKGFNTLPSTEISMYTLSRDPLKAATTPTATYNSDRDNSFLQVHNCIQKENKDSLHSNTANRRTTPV
Text: Experimental Example 1 Measurement Method of AMPA Receptor Function-Enhancing Activity of Compound Using Calcium Influx as Index
(1) Construction of Expression Gene
Human GluR^1 flip cDNA was amplified by PCR method using forward primer […] (SEQ ID NO: 1) and reverse primer […] (SEQ ID NO: 2) artificially synthesized using human brain-derived cDNA (BD Bioscience) as a template. The amplified product was digested with restriction enzymes EcoRI, NotI (TAKARA SHUZO CO. LTD.) and incorporated into the same site of pcDNA3.1 (+) (Invitrogen) to construct pcDNA3.1(+)/human GluR1 flip gene. Human stargazin cDNA was amplified by PCR method using forward primer […] (SEQ ID NO: 3) and reverse primer […] (SEQ ID NO: 4) artificially synthesized using human hippocampus cDNA as a template. The amplified product was digested with restriction enzymes XhoI, BamHI (TAKARA SHUZO CO. LTD.) and incorporated into the same site of pcDNA3.1(−) (Invitrogen) to construct pcDNA3.1 Zeo(−)/human stargazing gene.
(2) Construction of GluR1 Flip/Stargazin Expressing Cell
CHO-K1 cells passaged in a culture medium (Ham's F12 medium (Invitrogen) added with 10% inactivated fetal bovine serum (Morgate) and penicillin, streptomycin (Invitrogen)) were detached using 0.05% trypsin and 0.53 mM EDTA (Invitrogen) diluted with D-PBS(−). The detached cells were suspended in a culture medium, and recovered by centrifugation at 1,000 rpm. The recovered cells were re-suspended in D-PBS(−) and added into 0.4 cm electroporation cuvette (BioRad). pcDNA3.1(+)/human GluR1 flip gene (5 μg) and pcDNA3.1 Zeo(−)/human stargazin gene (15 μg) were added, and introduced into CHO-K1 cells under the conditions of 950 μFd, […] and using Gene Pulser II (BioRad). The introduced cells were cultured overnight in a culture medium. The next day, using a selection medium (culture medium added with zeocin (Invitrogen) at 250 μg/mL), the cells were plated in a 96 well plate at 250 cells/well. The clones showing drug resistance were selected, and GluR1 flip/stargazin expression clones were selected by an assay method shown below using calcium influx as an index.
(3) Measurement Method of AMPA Receptor Function-Enhancing Activity of Compound, Using Calcium Influx as an Index
CHO-K1/GluR1 flip/stargazin-expressing cells were plated on a 384 well black bottom transparent plate, and cultured for 2 days in a CO2 incubator (SANYO ELECTRIC Co. Ltd.) at 37° C. The medium of the cell plate was removed. A calcium indicator (Calcium5 Assay Kit, Molecular Devices) was diluted with an assay buffer (HESS (Thermo Fisher Scientific), 0.1% BSA (Merck Millipoer) and 10 mM HEPES (Thermo Fisher Scientific)), and 1.25 mM probenecid (Dojindo Laboratories) was added thereto. The mixture prepared above was added at 30 μL/well (100 μL/well in case of 96 wells) to the well, and the well was left standing in 37° C., CO2 incubator for 1 hr. The cell plate was set in CellLux (PerkinElmer), a mixture (15 μL) (50 μL/well in case of 96 wells) of 9 mM glutamic acid (final concentration 3 mM) diluted with an assay buffer and a test compound (test compound concentration 30 μM) was added thereto, and variation in the amount of fluorescence was measured for 3 min. The variation of fluorescence level of a well added with final concentration 3 mM of glutamic acid and 300 μM cyclothiazide (TOCRIS) was defined as 100%, the variation of fluorescence level of a well added with final concentration 3 mM of glutamic acid alone was defined as 0%, and the activity of the compound was calculated by the following formula. activity (%)=(X−C)/(T−C)×100 • T: variation of fluorescence level of well added with final concentration 3 mM of glutamic acid and 300 μM cyclothiazide • C: variation of fluorescence level of well added with final concentration 3 mM of glutamic acid alone • X: variation of fluorescence level of well added with test compound

| SMILES | activation at 30 µM [%] |
| --- | --- |
| O=C(c1ccc(-c2cccn3c(=O)c(Br)c(C(F)(F)F)nc23)cc1F)N1CCOCC1 [Example 46, 3-bromo-9-(3-fluoro-4-(morpholin-4-ylcarbonyl)phenyl)-2-(trifluoromethyl)-4H-pyrido[1,2-a]pyrimidin-4-one] | 77.3 |
| C[C@@H]1CN(C(=O)c2ccc(-c3cccn4c(=O)c(Br)c(C(F)(F)F)nc34)cc2)CCO1 [Example 49, 3-bromo-9-(4-(((2R)-2-methylmorpholin-4-yl)carbonyl)phenyl)-2-(trifluoromethyl)-4H-pyrido[1,2-a]pyrimidin-4-one] | 71.6 |
| O=C(N[C@H]1CCOC1)c1ccc(-c2cccn3c(=O)c(Br)c(C(F)(F)F)nc23)cc1 [Example 55, 4-(3-bromo-4-oxo-2-(trifluoromethyl)-4H-pyrido[1,2-a]pyrimidin-9-yl)-N-((3S)-tetrahydrofuran-3-yl)benzamide] | 75.1 |
| O=C(NC1CCOCC1)c1ccc(-c2cccn3c(=O)c(Br)c(C(F)(F)F)nc23)cc1 [Example 57, 4-(3-bromo-4-oxo-2-(trifluoromethyl)-4H-pyrido[1,2-a]pyrimidin-9-yl)-N-(tetrahydro-2H-pyran-4-yl)benzamide] | 78.7 |
| O=C(c1ccc(-c2cccn3c(=O)c(Br)c(C(F)(F)F)nc23)cc1)N1CCC1 [Example 61, 9-(4-(azetidin-1-ylcarbonyl)phenyl)-3-bromo-2-(trifluoromethyl)-4H-pyrido[1,2-a]pyrimidin-4-one] | 77.1 |
| O=C(c1ccc(-c2cccn3c(=O)c(Br)c(C(F)(F)F)nc23)cc1)N1CCCC1 [Example 62, 3-bromo-9-(4-(pyrrolidin-1-ylcarbonyl)phenyl)-2-(trifluoromethyl)-4H-pyrido[1,2-a]pyrimidin-4-one] | 76.9 |
| Cc1c(C(F)(F)F)nc2c(-c3ccc(C(=O)N4CCCOCC4)cc3)cccn2c1=O [Example 69, 3-methyl-9-(4-(1,4-oxazepan-4-ylcarbonyl)phenyl)-2-(trifluoromethyl)-4H-pyrido[1,2-a]pyrimidin-4-one] | 79.9 |
| O=C(NCC1CC1)c1ccc(-c2cccn3c(=O)c(Br)c(C(F)(F)F)nc23)cc1F [Example 70, 4-(3-bromo-4-oxo-2-(trifluoromethyl)-4H-pyrido[1,2-a]pyrimidin-9-yl)-N-(cyclopropylmethyl)-2-fluorobenzamide] | 71.4 |
| C[C@H]1CN(C(=O)c2ccc(-c3cccn4c(=O)c(Br)c(C(F)(F)F)nc34)cc2F)CCO1 [Example 73, 3-bromo-9-(3-fluoro-4-(((2S)-2-methylmorpholin-4-yl)carbonyl)phenyl)-2-(trifluoromethyl)-4H-pyrido[1,2-a]pyrimidin-4-one] | 87.9 |
| C[C@@H]1CN(C(=O)c2ccc(-c3cccn4c(=O)c(Br)c(C(F)(F)F)nc34)cc2F)CCO1 [Example 74, 3-bromo-9-(3-fluoro-4-(((2R)-2-methylmorpholin-4-yl)carbonyl)phenyl)-2-(trifluoromethyl)-4H-pyrido[1,2-a]pyrimidin-4-one] | 88.2 |
| O=C(c1ccc(-c2cccn3c(=O)c(Br)c(C(F)(F)F)nc23)cc1F)N1CCCOCC1 [Example 75, 3-bromo-9-(3-fluoro-4-(1,4-oxazepan-4-ylcarbonyl)phenyl)-2-(trifluoromethyl)-4H-pyrido[1,2-a]pyrimidin-4-one] | 99.1 |
| Cc1c(C(F)(F)F)nc2c(-c3ccc(C(=O)N4CCCOCC4)c(F)c3)cccn2c1=O [Example 76, 9-(3-fluoro-4-(1,4-oxazepan-4-ylcarbonyl)phenyl)-3-methyl-2-(trifluoromethyl)-4H-pyrido[1,2-a]pyrimidin-4-one] | 93.3 |
| Cc1c(C(F)(F)F)nc2c(-c3ccc(C(=O)N4CCc5cccnc54)c(F)c3)cccn2c1=O [Example 80, 9-(4-(2,3-dihydro-1H-pyrrolo[2,3-b]pyridin-1-ylcarbonyl)-3-fluorophenyl)-3-methyl-2-(trifluoromethyl)-4H-pyrido[1,2-a]pyrimidin-4-one] | 90.6 |
| Cc1c(C(F)(F)F)nc2c(-c3ccc(C(=O)N(C)C4CCOCC4)c(F)c3)cccn2c1=O [Example 83, 2-fluoro-N-methyl-4-(3-methyl-4-oxo-2-(trifluoromethyl)-4H-pyrido[1,2-a]pyrimidin-9-yl)-N-(tetrahydro-2H-pyran-4-yl)benzamide] | 103 |

The next lines start with the values.

| activation at 30 µM [%] | SMILES |
| --- | --- |
| 74.6 | O=C(c1ccc(-c2cccn3c(=O)c(Br)c(C(F)(F)F)nc23)cc1)N1CCc2cccnc21 [Example 65, 3-bromo-9-(4-(2,3-dihydro-1H-pyrrolo[2,3-b]pyridin-1-ylcarbonyl)phenyl)-2-(trifluoromethyl)-4H-pyrido[1,2-a]pyrimidin-4-one] |
| 73.5 | Cc1c(C(F)(F)F)nc2c(-c3ccc(C(=O)N4CCO[C@@H](C)C4)cc3)cccn2c1=O [Example 67, 3-methyl-9-(4-(((2S)2-methylmorpholin-4-yl)carbonyl)phenyl)-2-(trifluoromethyl)-4H-pyrido[1,2-a]pyrimidin-4-one] |
| 88.4 | Cc1c(C(F)(F)F)nc2c(-c3ccc(C(=O)N4CCOC(F)(F)C4)cc3)cccn2c1=O [Example 68, 9-(4-((2,2-difluoromorpholin-4-yl)carbonyl)phenyl)-3-methyl-2-(trifluoromethyl)-4H-pyrido[1,2-a]pyrimidin-4-one] |
| 72.3 | O=C(c1ccc(-c2cccn3c(=O)c(Br)c(C(F)(F)F)nc23)cc1F)N1CCOC(F)(F)C1 [Example 71, 3-bromo-9-(4-((2,2-difluoromorpholin-4-yl)carbonyl)-3-f1uorophenyl)-2-(trifluoromethyl)-4H-pyrido[1,2-a]pyrimidin-4-one] |
| 76.4 | COCCNC(=O)c1ccc(-c2cccn3c(=O)c(Br)c(C(F)(F)F)nc23)cc1F [Example 72, 4-(3-bromo-4-oxo-2-(trifluoromethyl)-4H-pyrido[1,2-a]pyrimidin-9-yl)-2-fluoro-N-(2-methoxyethyl)benzamide] |
| 94.2 | O=C(c1ccc(-c2cccn3c(=O)cc(C(F)(F)F)nc23)cc1F)N1CCc2cccnc21 [Example 78, 9-(4-(2,3-dihydro-1H-pyrrolo[2,3-b]pyridin-1-ylcarbonyl)-3-fluorophenyl)-2-(trifluoromethyl)-4H-pyrido[1,2-a]pyrimidin-4-one] |
| 79.6 | O=C(c1ccc(-c2cccn3c(=O)c(Br)c(C(F)(F)F)nc23)cc1F)N1CCc2cccnc21 [Example 79, 3-bromo-9-(4-(2,3-dihydro-1H-pyrrolo[2,3-b]pyridin-1-ylcarbonyl)-3-fluorophenyl)-2-(trifluoromethyl)-4H-pyrido[1,2-a]pyrimidin-4-one] |
| 95.1 | O=C(c1ccc(-c2cccn3c(=O)c(Cl)c(C(F)(F)F)nc23)cc1F)N1CCCOCC1 [Example 81, 3-chloro-9-(3-fluoro-4-(1,4-oxazepan-4-ylcarbonyl)phenyl)-2-(trifluoromethyl)-4H-pyrido[1,2-a]pyrimidin-4-one] |
| 81.4 | CN(C(=O)c1ccc(-c2cccn3c(=O)cc(C(F)(F)F)nc23)cc1F)C1CCOCC1 [Example 82, 2-fluoro-N-methyl-4-(4-oxo-2-(trifluoromethyl)-4H-pyrido[1,2-a]pyrimidin-9-yl)-N-(tetrahydro-2H-pyran-4-yl)benzamide] |
